Literature values as cited in patent publication US20040258778A1, “Lactation cessation and breast engorgement compositions and method of use” (priority 2003, published 2004).

System: lactating women

## CC(C)C[C@H]1C(=O)N2CCC[C@H]2[C@]2(O)O[C@](NC(=O)[C@@H]3C=C4c5cccc6[nH]c(Br)c(c56)C[C@H]4N(C)C3)(C(C)C)C(=O)N12 [bromocriptine]
After a two-week course of treatment ends, according to the official labeling
  rebound engorgement, share of the time: up to 40%
Use to suppress lactation (Iffy, 1998)
  very serious side effects reported: strokes, seizures (convulsions), intracranial bleeding, cerebral edema, and heart attacks
